Measured values reported in US20200246298A1, “Composition for Preventing or Treating Asthma Comprising Fatty Acid as Active Ingredient” (Dongshin University Industry-Academy Cooperation, priority 2019, published 2020).

Columns and labels:
[1] = tested on: mucus; assay: PAS staining of lung tissue, OVA-induced asthma; format: in vivo, BALB/c mice; details: 5 days, vs OVA-sensitized group
Method: (§1) In test groups, the animals determined to be healthy during the acclimation period were ranked by measuring the weight, and were randomly grouped so that the average weight of each group was uniform. The animals were divided into a total of 9 groups: a control group; a control group with OVA-induced asthma; a positive control group; groups administered with each of 50 mg/kg, 125 mg/kg and 250 mg/kg of oleic acid; and groups administered with each of 5 mg/kg, 25 mg/kg and 50 mg/kg of palmitic acid. The animals were sensitized via intraperitoneal injection of OVA once a week for 2 weeks after the acclimation period. During 5 days of week 3, dexamethasone (DEX) and the test substances oleic acid and palmitic acid were orally administered in the morning and 5% OVA solution was inhaled in the afternoon. The test substance was orally administered in an amount of 28 μL per weight (g) of the experimental animal, and OVA for sensitization was administered in a constant amount regardless of the weight. After 5 days of administration, autopsy was performed the next day.
Storage of tissue: ½ of the autopsy tissue was frozen quickly in liquid nitrogen, stored in an ultralow-temperature freezer or liquid nitrogen container (about −75 ° C.), and used for PCR/Western blotting, and the remaining ½ was stored in 10% formalin solution and used for histopathology and immunohistochemistry (IHC). […]

[2] = tested on: eosinophils, mucus and epithelial hyperplasia; assay: H&E staining of lung tissue, OVA-induced asthma; format: in vivo, BALB/c mice; details: 5 days, vs OVA-sensitized group
Method: as §1, with “day. Storage of tissue: ½ of the autopsy tissue was frozen quickly in liquid nitrogen, stored in an ultralow-temperature freezer or liquid nitrogen container (about −75 ° C.), and used for PCR/Western blotting, and the remaining ½ was stored in 10% formalin solution and used for histopathology and immunohistochemistry (IHC). […]” for “day.”

| SMILES | mucus (PAS staining) ([1]; oleic acid 50, 125, 250 mg/kg oral, FIG. 17) | eosinophils, mucus and epithelial hyperplasia (H&E staining) ([2]; oleic acid 50, 125, 250 mg/kg oral, FIG. 15) | mucus (PAS staining) ([1]; palmitic acid 5, 25, 50 mg/kg oral, FIG. 18) | eosinophils, mucus and epithelial hyperplasia (H&E staining) ([2]; palmitic acid 5, 25, 50 mg/kg oral, FIG. 16) |
| --- | --- | --- | --- | --- |
| CCCCCCCC/C=C\CCCCCCCC(=O)O [oleic acid] | dose-dependently decreased | dose-dependently decreased |  |  |
| CCCCCCCCCCCCCCCC(=O)O [palmitic acid] |  |  | dose-dependently decreased | dose-dependently decreased |
